The values below come from article PMC5522622 (Drug delivery and translational research, 2017).

One series concerns GST-A1. Put plainly: GST-A1 mRNA expression in RL-14 cells by real-time PCR. Format: cell-based, human. The note with it: 10 µM, 24 h. On the technique in general: Quantitative PCR measures a nucleic acid by following its amplification.
In series [1] the test system is CYP1B1. The note with it: RL-14 cells.
For a further series, the target named is CYP3A4 (Homo sapiens, UniProt P08684).
CYP3A4, sequence (P08684 whole entry): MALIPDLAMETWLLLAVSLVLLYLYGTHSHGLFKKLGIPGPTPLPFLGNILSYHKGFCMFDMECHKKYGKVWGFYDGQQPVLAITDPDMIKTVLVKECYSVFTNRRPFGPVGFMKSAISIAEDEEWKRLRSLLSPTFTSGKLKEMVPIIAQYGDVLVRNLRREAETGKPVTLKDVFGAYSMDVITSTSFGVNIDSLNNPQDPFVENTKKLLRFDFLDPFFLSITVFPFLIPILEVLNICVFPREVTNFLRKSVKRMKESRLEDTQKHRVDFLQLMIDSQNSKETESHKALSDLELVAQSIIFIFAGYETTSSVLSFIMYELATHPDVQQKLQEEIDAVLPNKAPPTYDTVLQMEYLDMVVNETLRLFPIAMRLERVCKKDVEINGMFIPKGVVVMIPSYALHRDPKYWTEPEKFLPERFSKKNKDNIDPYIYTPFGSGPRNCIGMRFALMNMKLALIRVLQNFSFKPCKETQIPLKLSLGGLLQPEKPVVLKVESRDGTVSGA
The test system of the next series is α-MHC. Put plainly: α-MHC mRNA expression in RL-14 cells by real-time PCR. The note with it: 10 µM, 24 h.
In a further series the test system is adult rat cardiomyocytes. Description: Adult rat cardiomyocyte viability by trypan blue assay. The class given is cell-based. The note with it: 18 h; for cell death: 10 µM, trypan blue; for cell death, concentration dependence: 1, 5 and 10 µM.
The subject of series [2] is CYP1B1. Particulars: MROD and EROD, RL-14 cells.
The subject of series [3] is reactive oxygen species in RL-14 cells. Description: Reactive oxygen species levels by DCF assay in RL-14 cells. Format: cell-based, human. The note with it: 10 µM, 24 h.
For series [4], the system named is triple-negative murine breast cancer cell line. Description: Cytotoxicity by resazurin blue assay. Format: cell-based. Particulars: 72 h.
For another series, the system named is BNP. Put plainly: BNP mRNA expression in RL-14 cells by real-time PCR. Particulars: 10 µM, 24 h. Format: cell-based, human.
Series [5] concerns human cardiomyocytes (RL-14). Put plainly: RL-14 cell viability by MTT assay. Format: cell-based. The note with it: 10 µM, 24 h, MTT.
Another series is described as follows: Water solubility. The class given is physicochemical. The note with it: stated in words, no test described.
Series [6] can be described thus: In vitro drug release of DoxQ in PBS with 10% FBS at 37 °C, HPLC. The class given is in vitro ADME.
Series [7] deals with MDCK-MDR cells (P-gp positive). Description: Fluorescence imaging of doxorubicin uptake by MDCK-MDR cells. The class given is cell-based, canine.
The subject of another series is β-MHC. Put plainly: β-MHC mRNA expression in RL-14 cells by real-time PCR. Particulars: 10 µM, 24 h.
The nature of series [8]: RL-14 cell viability by MTT assay. The class given is cell-based, human. Particulars: human, RL-14 cardiomyocyte cells. For orientation: Tetrazolium dyes change colour on reduction, which living cells bring about.
The subject of the next series is HO-1. Put plainly: HO-1 mRNA expression in RL-14 cells by real-time PCR. The class given is cell-based, human. The note with it: 10 µM, 24 h.

Entries after “also recorded” stand apart in the source; their conditions may differ.

`COc1cccc2c1C(=O)c1c(O)c3c(c(O)c1C2=O)CC(O)(C(=O)CO)CC3OC1CC(NC(=O)CNC(=O)Oc2ccc(-c3oc4cc(O)cc(O)c4c(=O)c3O)cc2O)C(O)C(C)O1` (stereo not shown) [DoxQ, quercetin-Gly-Dox]: the “lowering of GST-A1 mRNA expression in comparison to doxorubicin” value in the series on GST-A1 turned out to be 1.5 folds. Further, in the series on CYP1B1 [1], the “CYP1B1 mRNA expression, in words” value is “reversed these effects”. Also, the “inhibition of CYP1B1 mRNA expression compared to doxorubicin” value in the series with CYP1B1 [1] (Fig. 15a) is reported as “more than 4 folds”. For the same compound, the “CYP3A4 inhibition (percentage relative to ketoconazole), in words” value on CYP3A4 (0.01, 0.1, 1, 10, 50 and 100 µM) was “inhibited CYP3A4 at all the concentrations tested”. Also, on CYP3A4 (range tested 0.01-100 µM), the “concentration with the highest CYP3A4 inhibition” value amounted to 10 nM. In “Antioxidant assay kit” (1 and 10 mM), the “antioxidant capacity compared to quercetin alone” value is listed as “significantly higher”. For the same compound, in the series “Antioxidant assay kit” (10 and 50 mM), the “antioxidant capacity compared to a mixture of doxorubicin and quercetin” value was “significantly higher”. In addition, the “antioxidant effect compared to doxorubicin” value in “Antioxidant assay kit” (all concentrations studied (1, 10, 50)) is on record as “significantly higher”. In the series with α-MHC, the “inhibition of induction of α-MHC mRNA expression compared to doxorubicin” value is listed as 1.5 folds. In the series with adult rat cardiomyocytes, the cell death is ~ 17% and the “cell death, concentration dependence” value is given as “dose-response effect”. The “CYP1B1 catalytic activity, in words” value with CYP1B1 [2] was “significantly inhibited; also recorded: reversed these effects”. For the same compound, the “difference in ROS level versus free doxorubicin” value in series [3] is recorded as ~ 234%. In addition, in [4], the “IC50 relative to doxorubicin alone or a mixture of doxorubicin and quercetin” value is recorded as “more than twofold higher”; the “cytotoxicity compared to doxorubicin or mixture” value was “substantially less toxic”. For the same compound, the IC50 entry in series [4] (given in words) is “micromolar range”. The “inhibition of induction of BNP mRNA expression compared to doxorubicin” value with BNP was determined as 6 folds. In series [5], the cell viability came to 77% and the “prevention of the cytotoxicity mediated by doxorubicin” value is ~ 25%. Besides, the water solubility result in the series “Water solubility” is listed as “very poor”. For the same compound, in series [6] (Fig. 3), the “duration of in vitro release of doxorubicin from the conjugate” value was “more than 4 days”. Also, the “release t1/2 of quercetin from the conjugate” value in [6] (aqueous medium, second-order kinetics) is “approximately 100 h”. The “fluorescence signal in cells compared to free doxorubicin” value in [7] (50 nM, Fig. 4) was “higher”. Besides, in [7] (after 5-min treatment, Fig. 5a), the “drug uptake (fluorescence signal, ImageJ) compared to free doxorubicin” value is “significantly enhanced”. Moreover, the “inhibition of induction of β-MHC mRNA expression compared to doxorubicin” value with β-MHC amounted to 2.5 folds.
For the compound `COc1cccc2c1C(=O)c1c(O)c3c(c(O)c1C2=O)C[C@@](O)(C(=O)CO)C[C@@H]3O[C@H]1C[C@H](N)[C@H](O)[C@H](C)O1` [doxorubicin, Doxorubicin, reference compound], the “CYP1B1 mRNA expression, in words” value in the series with CYP1B1 [1] is “induced”. In the series on α-MHC, the “α-MHC mRNA expression versus control, in words” value is on record as “induced”. In the series on adult rat cardiomyocytes, the cell death is reported as ~ 22% and the “cell death, concentration dependence” value is “dose-response effect”. Further, the “CYP1B1 catalytic activity, in words” value with CYP1B1 [2] is recorded as “induced”. Further, the “BNP mRNA expression versus control, in words” value in the series with BNP is reported as “induced”. This compound also yielded a viability at 24 h, 10 µM in series [8] of 52%. Further, in the series with HO-1, the “HO-1 expression lower compared to cells treated with DoxQ” value is 1 fold. For the same compound, the “β-MHC mRNA expression versus control, in words” value in the series on β-MHC is reported as “induced”.

As a reminder, the cell viability is the share of living cells, or the viability signal relative to a control. Low values mean more harm to the cells, high ones less harm to the cells. By viability is commonly meant a read-out of living cells in per cent, often relative to untreated cells.
